For experiment [1], the system named is Beet Armyworm (BAW) (Spodoptera exigua). In words: Bioassay on beet armyworm (BAW), 128-well diet tray assay. In kind it is in vivo. The following applies: for BAW Rating: percent mortality of second instar larvae, 50 μg/cm^2 on artificial diet, five to seven days, 25° C.; for pest or weed control at 50 µg/cm2: Spodoptera exigua, Table 3B, beet armyworm, 128-well diet tray assay, read-out: BAW Rating. The procedure: (§1) Certain molecules disclosed in this document were tested against BAW and CEW and CL using procedures described in the following examples. In the reporting of the results, the “BAW & CEW & CL Rating Table” was used (See Table Section).
Bioassays on BAW were conducted using a 128-well diet tray assay. one to five second instar BAW larvae were placed in each well (3 mL) of the diet tray that had been previously filled with 1 mL of artificial diet to which 50 μg/cm^2 of the test compound (dissolved in 50 μL of 90:10 acetone-water mixture) had been applied (to each of eight wells) and then allowed to dry. Trays were covered with a clear self-adhesive cover, and held at 25° C., 14:10 light-dark for five to seven days. Percent mortality was recorded for the larvae in each well; activity in the eight wells was then averaged. The results are indicated in the table entitled “Table 3: Assay Results” (See Table Section).

Experiment [2] relates to Cabbage Looper (CL) (Trichoplusia ni). In words: Bioassay on cabbage looper (CL), 128-well diet tray assay. It counts as in vivo. The settings on record: Table 3B, read-out: CL Rating. As for the experimental part: as §1
Bioassays on CL were conducted using a 128-well diet tray assay. One to five second instar CL larvae were placed in each well (3 mL) of the diet tray that had been previously filled with 1 mL of artificial diet to which 50 μg/cm^2 of the test compound (dissolved in 50 μL of 90:10 acetone-water mixture) had been applied (to each of eight wells) and then allowed to dry. Trays were covered with a clear self-adhesive cover, and held at 25° C., 14:10 light-dark for five to seven days. Percent mortality was recorded for the larvae in each well; activity in the eight wells was then averaged. The results are indicated in the table entitled “Table 3A: Assay Results” (See Table Section).

SMILES strings stand for the structures.

For the molecule `O=C(NCCc1ccc(Cl)nc1)c1ccc(/C=C/C(c2cc(Cl)c(Cl)c(Cl)c2)C(F)(F)F)cc1Br` (stereo not drawn) [AC113], the “BAW Rating” value in experiment [1] is “B (More than 0-Less than 50)”.

`Cc1cc(/C=C/C(c2cc(Cl)c(Cl)c(Cl)c2)C(F)(F)F)ccc1C(=O)NN(C)C(=O)CCC(F)(F)F` (stereo not drawn) [FA6]: the pest or weed control at 50 µg/cm2 in experiment [1] and in experiment [2] was 50 to 100% in each case.

Take `CC(C)(CNC(=O)C(F)(F)F)NC(=O)c1ccc(/C=C/C(c2cc(Cl)c(Cl)c(Cl)c2)C(F)(F)F)cc1C(F)(F)F` (stereo not drawn) [FA15]: the pest or weed control at 50 µg/cm2 in experiment [1] and in experiment [2] was 50 to 100% throughout.

Take `CN(NC(=O)c1ccc(/C=C/C(c2cc(Cl)c(Cl)c(Cl)c2)C(F)(F)F)cc1C(F)(F)F)C(=O)C(F)(F)C(F)(F)C(F)(F)F` (stereo not drawn) [FA11]: the pest or weed control at 50 µg/cm2 in experiment [1] and in experiment [2] was 50 to 100% throughout.

In the case of `CN(NC(=O)c1ccc(/C=C/C(c2cc(Cl)c(Cl)c(Cl)c2)C(F)(F)F)cc1Br)C(=O)CC(F)(F)F` (stereo not drawn) [FA2], the pest or weed control at 50 µg/cm2 in experiment [1] and in experiment [2] was 50 to 100% in each case.

Consider `FC(F)(F)C(/C=C/c1ccc(-n2cncn2)cc1)c1ccccc1` (stereo not drawn) [DC3], for which, in experiment [1], the “BAW Rating” value is given as “B (More than 0-Less than 50)”.

Take `CCNC(=O)NCc1ccc(/C=C/C(c2cc(Cl)cc(Cl)c2)C(F)(F)F)cc1Cl` (stereo not drawn) [CC31, (E)-1-(2-Chloro-4-(3-(3,5-dichlorophenyl)-4,4,4-trifluorobut-1-en-1-yl)benzyl)-3-ethylurea]: in experiment [1], the “BAW Rating” value is given as “B (More than 0-Less than 50)”.

As to `O=C(NCCNC(=O)C(F)(F)F)c1ccc(/C=C/C(c2cc(Cl)c(Cl)c(Cl)c2)C(F)(F)F)cc1C(F)(F)F` (stereo not drawn) [FA10], the pest or weed control at 50 µg/cm2 in experiment [1] and in experiment [2] was 50 to 100% in each case.

`CN(NC(=O)c1ccc(/C=C/C(c2cc(Cl)c(Cl)c(Cl)c2)C(F)(F)F)cc1C(F)(F)F)C(=O)C1CC1` (stereo not drawn) [FA3]: the pest or weed control at 50 µg/cm2 in experiment [1] and in experiment [2] was 50 to 100% each time.

With `O=C(NC1CCN(C2COC2)CC1)c1ccc(/C=C/C(c2cc(Cl)c(Cl)c(Cl)c2)C(F)(F)F)cc1Br` (stereo not drawn) [AC108, (E)-2-Bromo-N-(1-(oxetan-3-yl)piperidin-4-yl)-4-(4,4,4-trifluoro-3-(3,4,5-trichlorophenyl)but-1-en-1-yl)benzamide], the “BAW Rating” value in experiment [1] is on record as “B (More than 0-Less than 50)”.

Regarding `CCCC(=O)N(C)NC(=O)c1ccc(/C=C/C(c2cc(Cl)c(Cl)c(Cl)c2)C(F)(F)F)cc1C(F)(F)F` (stereo not drawn) [FA12], the pest or weed control at 50 µg/cm2 in experiment [1] and in experiment [2] was 50 to 100% each time.

In the case of `N#CCN1CCC(NC(=O)c2ccc(/C=C/C(c3cc(Cl)c(Cl)c(Cl)c3)C(F)(F)F)cc2Br)CC1` (stereo not drawn) [AC107], in experiment [1], the “BAW Rating” value is reported as “B (More than 0-Less than 50)”.

For the molecule `CCC(=O)N(C)NC(=O)c1ccc(/C=C/C(c2cc(Cl)c(Cl)c(Cl)c2)C(F)(F)F)cc1C` (stereo not drawn) [FA4], the pest or weed control at 50 µg/cm2 in experiment [1] and in experiment [2] was 50 to 100% in each case.

Consider `CC(C)(CNC(=O)CC(F)(F)F)NC(=O)c1ccc(/C=C/C(c2cc(Cl)c(Cl)c(Cl)c2)C(F)(F)F)cc1C(F)(F)F` (stereo not drawn) [FA16], for which the pest or weed control at 50 µg/cm2 in experiment [1] and in experiment [2] was 50 to 100% throughout.

On to `O=C(CC(F)(F)F)NCCNC(=O)c1ccc(/C=C/C(c2cc(Cl)c(Cl)c(Cl)c2)C(F)(F)F)cc1C(F)(F)F` (stereo not drawn) [FA7], for which the pest or weed control at 50 µg/cm2 in experiment [1] and in experiment [2] was 50 to 100% throughout.

On to `CC(C)(CNC(=O)c1ccc(/C=C/C(c2cc(Cl)c(Cl)c(Cl)c2)C(F)(F)F)cc1C(F)(F)F)NC(=O)CC(F)(F)F` (stereo not drawn) [FA8], for which the pest or weed control at 50 µg/cm2 in experiment [1] and in experiment [2] was 50 to 100% each time.

Turning to `Cc1cc(/C=C/C(c2cc(Cl)c(Cl)c(Cl)c2)C(F)(F)F)ccc1C(=O)NN(C)C(=O)C1CC1` (stereo not drawn) [FA5], the pest or weed control at 50 µg/cm2 in experiment [1] and in experiment [2] was 50 to 100% in each case.

For `CN(NC(=O)c1ccc(/C=C/C(c2cc(Cl)c(Cl)c(Cl)c2)C(F)(F)F)cc1C(F)(F)F)C(=O)CCC(F)(F)F` (stereo not drawn) [FA13], the pest or weed control at 50 µg/cm2 in experiment [1] and in experiment [2] was 50 to 100% throughout.

In the case of `O=C(CCC(F)(F)F)NNC(=O)c1ccc(/C=C/C(c2cc(Cl)c(Cl)c(Cl)c2)C(F)(F)F)cc1C(F)(F)F` (stereo not drawn) [FA14], the pest or weed control at 50 µg/cm2 in experiment [1] and in experiment [2] was 50 to 100% each time.

On to `CN(NC(=O)c1ccc(/C=C/C(c2cc(Cl)c(Cl)c(Cl)c2)C(F)(F)F)cc1Br)C(=O)CCC(F)(F)F` (stereo not drawn) [FA1], for which the pest or weed control at 50 µg/cm2 in experiment [1] and in experiment [2] was 50 to 100% each time.

Consider `CC(C)(CNC(=O)c1ccc(/C=C/C(c2cc(Cl)c(Cl)c(Cl)c2)C(F)(F)F)cc1C(F)(F)F)NC(=O)C(F)(F)F` (stereo not drawn) [FA9], for which the pest or weed control at 50 µg/cm2 in experiment [2] lay within 0 to 50%.

The values above are taken from patent publication US9629363B2, “Pesticidal compositions and processes related thereto” (Dow AgroSciences LLC, priority 2012, dated 2017).
